The values that follow come from patent publication US20040009967A1, “Pyridyl alkene- and pyridyl alkine- acid amides as cytostatics and immuno-suppressives” (Klinge Pharma GmbH, priority 1996, published 2004).

SMILES strings stand for the structures. Read-outs that look alike come from different tables or passages of the source.

One data set deals with HepG2 cells. Put plainly: Growth inhibition of HepG2 cells, six days of incubation, sulforhodamin-B-method. Particulars: six days of substance incubation, read-out: IC50-value (concentration in which the cell growth was inhibited by 50%). Format: cell-based, human. As to the method: HepG2 cells plated at a density of 20,000 cells/ml in 12-well plastic dishes. Cultivation occured in Richters IMEM-ZO nutrient medium with 5% fetal calf serum (FCS) in a tissue culture incubator with a gas mixture of 5% CO2 and 95% air at a temperature of 37° C. One day after plating, the culture medium was aspirated from the cells and replaced by fresh medium which contained the respective concentrations of the test substances. For the individual concentrations and the controls without test substances, three-fold batches were done for each. Three days after the beginning of treatment, the medium was again renewed with the test compounds. After six days of substance incubation, the test was ended and the protein amount in the individual wells was determined with the sulforhodamin-B-method (according to P. Skehan et al.: New Colorimetric Cytotoxity Assay for Anticancer-Drug Screening. J. Natl. Cancer Inst. 82: 1107-1112, 1990). The IC50-values (defined as that concentration in which the cell growth was inhibited by 50%) was taken from the dose-response curves and given as a comparative measurement for the activity of the test compounds.

The subject of data set [1] is lymphocytes from the spleen of a Swiss mouse. Briefly: Immunosuppressing activity: vitality of freshly isolated spleen lymphocytes, flow-through cytometer. Particulars: 2 days incubation, read-out: IC50 (percentage amount of vital cells). It is filed as cell-based. The source says: Many anti-tumor agents have not only a cytotoxic effect on tumor cells, but also on the blood cell system. This leads to a weakening of the immune defence, which can, in turn, be specifically employed to suppress the rejection reaction after an organ transplantation for example. Therefore, a use of the main compounds, optionally in combination with other compounds effective for these indications is suitable in diseases such as psoriasis or autoimmune diseases. In order to test the possibility for a therapeutic use in illnesses of this type, the substance activity was tested on freshly isolated lymphocytes as follows:
The spleen of a Swiss mouse served as a lymphocyte source. The lymphocyte population was isolated from the spleen cell suspension over a ficoll gradient and taken up in IMEM-ZO culture medium with 0,1% dextran 70,000 and 2% fetal calf serum. The cells were plated at a density of ca. 500,000 cells/well/ml in a 12-well plate, 1 ml doubly concentrated test substance solution was pipetted per well and this was subsequently incubated in a tissue culture incubator at 37° C. and 5% CO2. After 2 days, a 1 ml-aliquot with 5 μl of the fluorescent dye solutions propidium iodide (8 mg/ml) and 3,3′-dihexyloxacarbocyanin iodide (40 μg/ml) each was added per well, and incubated for 3 minutes at room temperature. Subsequently, 10,000 cells per each sample were measured on a flow-through cytometer and the percentage amount of vital cells in the population was determined. By means of the dose-response curves, IC50-values were calculated which were also employed in the following Tables for the characterization of the individual substances: […]

In general, melting point refers to the temperature of the solid-liquid transition. In turn, `O=C(C=Cc1cccnc1)NCCCCC1CCN(C2c3ccccc3CSc3ccccc32)CC1` (stereo not drawn) [Substance 136, N-{4-[1-(6,11-dihydro-dibenzo[b,e]thiepin-11-yl)-piperidin-4-yl]-butyl}-3-(pyridin-3-yl)-acrylamide] had a melting point of 89 to 91 °C. In addition, the IC50 in the data set with HepG2 cells (Homo sapiens, 144 h) came out at 2 nM.
The compound `O=C(C=Cc1cccnc1)NCCCCC1CCN(C(=O)C(c2ccccc2)c2ccccc2)CC1` [Substance 150, N-[4-(1-diphenylacetyl-piperidin-4-yl)-butyl]-3-(pyridin-3-yl)-acrylamide] showed a melting point of 161 °C. Besides, in data set [1] (Lymphocyte, 48 h), the IC50 was 0.2 nM.
With `O=C(C=Cc1cccnc1)NCCCCC1CCN(C(=O)c2ccccc2)CC1` [Substance 159, N[4-(1-benzoylpiperidin-4-yl)-butyl]-3-(pyridin-3-yl)-acrylamide], the IC50 in data set [1] amounted to 3 nM; in the data set on HepG2 cells, 0.5 nM.
Regarding `O=C(C=Cc1cccnc1)NCCCCC1CCN(C(=O)c2cccc3c2-c2ccccc2C3=O)CC1` [Substance 178, N-{4-[1-(9-oxo-9H-fluoren-4-yl-carbonyl)-piperidin-4-yl]-butyl}-3-(pyridin-3-yl)-acrylamide], in the data set with HepG2 cells (Homo sapiens, 144 h), the IC50 stood at 0.7 nM.
For the compound `O=C(C=Cc1cccnc1)NCCCCC1CCN(C(=O)Nc2cccc3ccccc23)CC1` [Substance 195, N-{4-[1-(1-naphthylaminocarbonyl)-piperidin-4-yl]-butyl}-3-(pyridin-3-yl)-acrylamide], the melting point fell in the range of 198 to 200 °C. Further, the IC50 in data set [1] (Lymphocyte, 48 h) was 2 nM.
For `O=C(C=Cc1cccnc1)NCCCCC1CCN(C(=O)N(c2ccccc2)c2ccccc2)CC1` [Substance 199, N-{4-[1-(diphenylaminocarbonyl)-piperidin-4-yl]-butyl}-3-(pyridin-3-yl)-acrylamide], the IC50 in data set [1] (Lymphocyte, 48 h) stood at 0.04 nM; in the data set on HepG2 cells (Homo sapiens, 144 h), 1 nM.
Regarding `O=C(C=Cc1cccnc1)NCCCCC1CCN(S(=O)(=O)c2ccc3ccccc3c2)CC1` [Substance 219, N-{4-[1-(2-naphthyl-sulfonyl)-piperidin-4-yl]-butyl}-3-(pyridin-3-yl)-acrylamide], the melting point is 85 to 87 °C.
